Converted amounts (≈) assume the structure as drawn.

For experiment [1], the system named is Staphylococcus aureus. As to the kind of experiment: Antibacterial activity against Staphylococcus aureus 1199B overexpressing NorA efflux protein assessed as bacterial growth inhibition. It is filed as functional.
Experiment [2] has as its system Staphylococcus aureus. As to the kind of experiment: Antibacterial activity against Staphylococcus aureus K1758 with NorA deletion mutant assessed as bacterial growth inhibition. It counts as functional.
Experiment [3] relates to Staphylococcus aureus. The experiment is described as follows: Synergistic antibacterial activity against Staphylococcus aureus 1199B overexpressing NorA efflux protein assessed as fractional inhibitory concentration index in presence of norfloxacin by checkerboard assay. It is filed as functional.
Experiment [4] concerns Staphylococcus aureus. The experiment is described as follows: Synergistic antibacterial activity against Staphylococcus aureus 1199B overexpressing NorA efflux protein assessed as fractional inhibitory concentration index in presence of ciprofloxacin by checkerboard assay. It counts as functional.
The test system of experiment [5] is Staphylococcus aureus. The experiment is described as follows: Synergistic antibacterial activity against Staphylococcus aureus 1199B overexpressing NorA efflux protein assessed as fractional inhibitory concentration index in presence of moxifloxacin by checkerboard assay. It counts as functional.
The subject of experiment [6] is Staphylococcus aureus. As to the kind of experiment: Synergistic antibacterial activity against Staphylococcus aureus 1199B overexpressing NorA efflux protein assessed as fractional inhibitory concentration index in presence of chloramphenicol by checkerboard assay. It counts as functional.
Experiment [7] has as its system LS180. As to the kind of experiment: Cytotoxicity against human LS180 cells. It counts as functional, cell-based.
For experiment [8], the target named is ATP-dependent translocase ABCB1 (Homo sapiens, UniProt P08183). As to the kind of experiment: Inhibition of P-gp mediated efflux in human LS180 cells using digoxin as substrate incubated for 90 mins by fluorescence assay. It counts as cell-based.
The test system of experiment [9] is Staphylococcus aureus. As to the kind of experiment: Antibacterial activity against Staphylococcus aureus 1199B overexpressing NorA efflux pump assessed as bacterial growth inhibition incubated for 18 hrs by broth dilution method. It is filed as functional.
In experiment [10] the test system is Staphylococcus aureus. The experiment is described as follows: Antibacterial activity against Staphylococcus aureus K1758 with NorA knockout assessed as bacterial growth inhibition incubated for 18 hrs by broth dilution method. It counts as functional.
Experiment [11] deals with T1, Quinolone resistance protein NorA (Staphylococcus aureus) (UniProt P0A0J7).
T1 sequence (whole entry): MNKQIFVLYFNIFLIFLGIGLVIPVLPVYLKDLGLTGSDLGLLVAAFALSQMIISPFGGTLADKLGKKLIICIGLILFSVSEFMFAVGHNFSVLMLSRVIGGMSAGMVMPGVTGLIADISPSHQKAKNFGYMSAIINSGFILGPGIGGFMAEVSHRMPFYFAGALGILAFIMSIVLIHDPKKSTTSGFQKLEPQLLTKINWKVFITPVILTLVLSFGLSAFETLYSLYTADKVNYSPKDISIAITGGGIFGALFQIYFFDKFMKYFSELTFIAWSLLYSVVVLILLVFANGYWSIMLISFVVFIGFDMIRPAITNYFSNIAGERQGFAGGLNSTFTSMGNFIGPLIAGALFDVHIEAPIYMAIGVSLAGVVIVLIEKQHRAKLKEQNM
The experiment is described as follows: Inhibition of NorA efflux pump in Staphylococcus aureus 1199B overexpressing NorA efflux pump assessed as decrease in ciprofloxacin MIC at 1/4 times MIC and measured for 45 mins in presence of ciprofloxacin by fluorimetric analysis (Rvb=8 ug/ml).

Experiment [12] addresses T1, Quinolone resistance protein NorA (Staphylococcus aureus). As to the kind of experiment: Inhibition of NorA efflux pump in Staphylococcus aureus 1199B overexpressing NorA efflux pump assessed as decrease in norfloxacin MIC at 1/4 times MIC and measured for 45 mins in presence of norfloxacin by fluorimetric analysis (Rvb=32 ug/ml).
In experiment [13] the test system is Staphylococcus aureus. The experiment is described as follows: Synergistic antibacterial activity against Staphylococcus aureus 1199B overexpressing NorA efflux pump assessed as fractional inhibitory concentration index in presence of norfloxacin incubated for 18 hrs by checkerboard assay. It is filed as functional.
The subject of experiment [14] is Staphylococcus aureus. The experiment is described as follows: Synergistic antibacterial activity against Staphylococcus aureus 1199B overexpressing NorA efflux pump assessed as fractional inhibitory concentration index in presence of ciprofloxacin incubated for 18 hrs by checkerboard assay. It counts as functional.
The test system of experiment [15] is Staphylococcus aureus. The experiment is described as follows: Antibacterial activity against Staphylococcus aureus RN4220 expressing MsrA efflux protein assessed as bacterial growth inhibition incubated for 24 hrs by resazurin based microdilution assay. It counts as functional.
Experiment [16] concerns Staphylococcus aureus. The experiment is described as follows: Antibacterial activity against Staphylococcus aureus IS-58 expressing TetK efflux protein assessed as bacterial growth inhibition incubated for 24 hrs by resazurin based microdilution assay. It counts as functional.
Experiment [17] concerns Staphylococcus aureus. The experiment is described as follows: Antibacterial activity against Staphylococcus aureus 1199B expressing NorA efflux protein assessed as bacterial growth inhibition incubated for 24 hrs by resazurin based microdilution assay. It counts as functional.
The test system of experiment [18] is Staphylococcus aureus. The experiment is described as follows: Antibacterial activity against wild type Staphylococcus aureus 1199 assessed as bacterial growth inhibition incubated for 24 hrs by resazurin based microdilution assay. It is filed as functional.
Experiment [19] has as its system Staphylococcus haemolyticus. As to the kind of experiment: Antibacterial activity against Staphylococcus haemolyticus assessed as bacterial growth inhibition by microdilution assay. It counts as functional.
For experiment [20], the system named is Staphylococcus haemolyticus. As to the kind of experiment: Antibacterial activity against Staphylococcus haemolyticus grown in blood assessed as bacterial growth inhibition by microdilution assay. It counts as functional.
The target of experiment [21] is UDP-N-acetylmuramoyl-L-alanyl-D-glutamate--2,6-diaminopimelate ligase (Mycobacterium tuberculosis (strain ATCC 25618 / H37Rv), UniProt P9WJL3). As to the kind of experiment: Inhibition of MurE ligase activity in Mycobacterium tuberculosis assessed as release of inorganic phosphate by hydrolysis of ATP using UDP-MurNAc-l-Ala-d-Glu as substrate in presence of ATP incubated for 30 mins by absorbance assay.

The test system of experiment [22] is MCF7. As to the kind of experiment: Cytotoxicity against human MCF7 cells assessed as reduction in cell viability by sulforhodamine B assay. It is filed as functional, cell-based.
Experiment [23] has as its system A549. The experiment is described as follows: Cytotoxicity against human A549 cells assessed as reduction in cell viability by sulforhodamine B assay. It counts as functional, cell-based.
Experiment [24] has as its system WI-38. The experiment is described as follows: Cytotoxicity against human WI-38 cells assessed as reduction in cell viability by sulforhodamine B assay. It is filed as functional, cell-based.

On to `Nc1ccccc1-c1cc2ccccc2[nH]1`, for which the MIC in experiment [1] amounted to 128 µg/mL (≈ 615 µM); in experiment [2], 64 µg/mL (≈ 307 µM). For the same molecule, the “fractional inhibitory concentration index (FICI)” value in experiment [3], in [4], in [5] and in experiment [6] was “>=0.5” in each case.
Consider `CC(=O)c1c(-c2ccc(F)cc2)cn(-c2ccc(C)cc2)c1C`, for which the IC50 is > 100 µM in experiment [7] and 11.2 µM in [8].
For the molecule `COc1cc(/C=C/C(=O)N/N=C/c2ccc[nH]2)cc(OC)c1OC`, the MIC in experiment [9] amounted to 64 µg/mL (≈ 194 µM); in experiment [10], 64 µg/mL (≈ 194 µM); in experiment [11] it was 0.5 µg/mL; in [12], 1 µg/mL. Besides, the “fractional inhibitory concentration index (FICI)” value in experiment [13] and in [14] was 0.56 throughout.
In the case of `CC1=CC(=O)c2ccccc2C1=O` [MENADIONE], the MIC in experiment [15], in [16], in experiment [17] and in experiment [18] was 64 µg/mL (≈ 372 µM) in each case.
For `CC[C@H](C)C(=O)c1c(O)cc(O)cc1OC/C=C(\C)CCC=C(C)C` [OLYMPICIN A], the MIC in [19] was ≥ 16 µg/mL; in [20], > 32 µg/mL. Further, the IC50 in [21] was 75 µM; in [22] it was 12.5 µM; in [23] it was 10.5 µM; in experiment [24] it was 8.9 µM.

Source of the values: ChEMBL document CHEMBL5244281, “Tackling multidrug-resistant Staphylococcus aureus by natural products and their analogues acting as NorA efflux pump inhibitors” (Bioorg Med Chem, 2023).
